Measurements reported in PMC10353187, “Discovery of a new potent oxindole multi-kinase inhibitor among a series of designed 3-alkenyl-oxindoles with ancillary carbonic anhydrase inhibitory activity as antiproliferative agents” (BMC Chemistry, 2023).

Assays:
[1] = biological target: hCA II (Homo sapiens, UniProt P00918); assay: Stopped flow CO2 hydrase assay
[2] = biological target: hCA IX (Homo sapiens, UniProt Q16790); assay: Stopped flow CO2 hydrase assay; details: for Selectivity ratio I/IX: Ki hCA I / Ki hCA IX; for Selectivity ratio II/IX: Ki hCA II / Ki hCA IX
[3] = biological target: hCA I (Homo sapiens, UniProt P00915); assay: Stopped flow CO2 hydrase assay
[4] = biological target: hCA XII (Homo sapiens, UniProt O43570); assay: Stopped flow CO2 hydrase assay; details: for Selectivity ratio I/XII: Ki hCA I / Ki hCA XII; for Selectivity ratio II/XII: Ki hCA II / Ki hCA XII
[5] = test system: UO-31; assay: NCI-60 single-dose antiproliferative assay (SRB); format: cell-based, human; details: Homo sapiens, UO-31, 10 μM single dose; UO-31, Renal cancer; read-out: Cell Growth inhibition Percent
Method: (§1) From the newly synthesized compounds, eleven compounds (4c, 4d, 5, 9a, 9b, 11a, 11b, 13b, 13c, 15b, and 15c) were selected by the National Cancer Institute (NCI) Developmental Therapeutics Program (DTP), Bethesda, Maryland, USA for the in vitro anti-proliferative activity evaluation. The selected compounds were examined at 10 μM dose against the NCI 60-cell line panel. This panel consists of nine cell line groups of leukemia, non-small cell lung carcinoma (NSCLC), melanoma, colon, CNS, ovarian, renal, prostate, and breast cancers. The results are reported as mean-graph of the percent growth relative to control and presented as percentage growth inhibition (GI%), furthermore, mean GI% of each compound over all panel cell lines was calculated (Table 1; Additional file 1; S3: In vitro biological activity).
(§2) From the newly synthesized compounds, eleven compounds were selected by the National Cancer Institute (NCI) Developmental Therapeutics Program (DTP), Bethesda, Maryland, USA for the in vitro anti-proliferative activity evaluation (For further details see supplementary materials).
(§3) NCI In-vitro Cancer Screening is a two-phase procedure that starts with the assessment of all compounds against the sixty NCI cell line panel depicting leukemia, NSCLC, CNS cancer, melanoma, prostate cancer, breast cancer, renal cancer, colon cancer and ovarian cancer cell lines at a single point of 10μM. The output from the single-dose screen is reportable as a mean graph.
(§4) The human tumor cell lines of the cancer screening panel were grown in RPMI 1640 medium containing 5% fetal bovine serum and 2 mM L-glutamine. For a typical screening experiment, cells were inoculated into 96 well microtiter plates in […] at plating densities ranging from 5000 to 40,000 cells/well depending on the doubling time of individual cell lines. After cell inoculation, the microtiter plates were incubated at 37 °C, 5% CO2, 95% air and 100% relative humidity for 24 h prior to addition of experimental drugs. After 24 h, two plates of each cell line were fixed in situ with trichloroacetic acid (TCA), to represent a measurement of the cell population for each cell line at the time of drug addition (Tz). Experimental drugs were solubilized in dimethyl sulfoxide at 400-fold the desired final maximum test concentration and stored frozen prior to use. At the time of drug addition, an aliquot of frozen concentrate was thawed and diluted to twice the desired final maximum test concentration with complete medium containing 50 µg/ml gentamicin. Aliquot of 100 µl of the drug dilution was added to the appropriate microtiter wells already containing 100 µl of medium, resulting in the required final drug concentration (10 µM). Triplicate wells were prepared for each individual dose. Following drug addition, the plates were incubated for an additional 48 h at 37 °C, 5% CO2, 95% air, and 100% relative humidity. For adherent cells, the assay was terminated by the addition of cold TCA. Cells were fixed in situ by the gentle addition of 50 µl of cold 50% (w/v) TCA (final concentration, 10% TCA) and incubated for 60 min at 4 °C. The supernatant was discarded, and the plates were washed five times with tap water and air dried. Sulforhodamine B (SRB) solution (100 µl) at 0.4% (w/v) in 1% acetic acid was added to each well, and plates were incubated for 10 min at room temperature. After staining, unbound dye was removed by washing five times with 1% acetic acid and the plates were air dried. Bound stain was subsequently solubilized with 10 mM trizma base, and the absorbance was read on an automated plate reader at a wavelength of 515 nm. For suspension cells, the methodology was the same except that the assay was terminated by fixing settled cells at the bottom of the wells by gently adding 50 µl of 80% TCA (final concentration, 16% TCA). […]

[6] = test system: NCI-H522; assay: NCI-60 single-dose antiproliferative assay (SRB); format: cell-based; details: Homo sapiens; 10 μM single dose; NCI-H522, Non-small cell lung cancer; read-out: Cell Growth inhibition Percent
Method: as §1, §2, §3, §4

[7] = test system: HOP-62; assay: NCI-60 single-dose antiproliferative assay (SRB); format: cell-based; details: Homo sapiens; 10 μM single dose; HOP-62, Non-small cell lung cancer; read-out: Cell Growth inhibition Percent
Method: as §1, §2, §3, §4

[8] = test system: HOP-92; assay: NCI-60 single-dose antiproliferative assay (SRB); format: cell-based; details: Homo sapiens; 10 μM single dose; HOP-92, Non-small cell lung cancer; read-out: Cell Growth inhibition Percent
Method: as §1, §2, §3, §4

[9] = test system: SNB-75; assay: NCI-60 single-dose antiproliferative assay (SRB); format: cell-based; details: Homo sapiens; 10 μM single dose; SNB-75, CNS cancer; read-out: Cell Growth inhibition Percent
Method: as §1, §2, §3, §4

[10] = test system: OVCAR-8; assay: NCI-60 single-dose antiproliferative assay (SRB); format: cell-based; details: Homo sapiens; 10 μM single dose; OVCAR-8, Ovarian Cancer; read-out: Cell Growth inhibition Percent
Method: as §1, §2, §3, §4

[11] = test system: CAKI-1; assay: NCI-60 single-dose antiproliferative assay (SRB); format: cell-based; details: Homo sapiens; 10 μM single dose; CAKI-1, Renal cancer; read-out: Cell Growth inhibition Percent
Method: as §1, §2, §3, §4

[12] = test system: MCF7; assay: NCI-60 single-dose antiproliferative assay (SRB); format: cell-based; details: Homo sapiens; 10 μM single dose; MCF7, Breast cancer; read-out: Cell Growth inhibition Percent
Method: as §1, §2, §3, §4

[13] = test system: ACHN; assay: NCI-60 single-dose antiproliferative assay (SRB); format: cell-based; details: Homo sapiens, 10 μM single dose, Renal cancer, read-out: Cell Growth inhibition Percent
Method: as §1, §2, §3, §4

[14] = test system: KM12; assay: NCI-60 single-dose antiproliferative assay (SRB); format: cell-based; details: Homo sapiens; 10 μM single dose; KM12, Colon cancer; read-out: Cell Growth inhibition Percent
Method: as §1, §2, §3, §4

[15] = test system: SK-MEL-5; assay: NCI-60 single-dose antiproliferative assay (SRB); format: cell-based; details: Homo sapiens; 10 μM single dose; SK-MEL-5, Melanoma; read-out: Cell Growth inhibition Percent
Method: as §1, §2, §3, §4

[16] = test system: HCT-15; assay: NCI-60 single-dose antiproliferative assay (SRB); format: cell-based; details: Homo sapiens; 10 μM single dose; HCT-15, Colon cancer; read-out: Cell Growth inhibition Percent
Method: as §1, §2, §3, §4

[17] = test system: PC-3; assay: NCI-60 single-dose antiproliferative assay (SRB); format: cell-based; details: Homo sapiens; 10 μM single dose; PC-3, Prostate cancer; read-out: Cell Growth inhibition Percent
Method: as §1, §2, §3, §4

[18] = test system: K-562; assay: NCI-60 single-dose antiproliferative assay (SRB); format: cell-based; details: Homo sapiens, K562; 10 μM single dose; K-562, Leukemia; read-out: Cell Growth inhibition Percent
Method: as §1, §2, §3, §4

[19] = test system: SR; assay: NCI-60 single-dose antiproliferative assay (SRB); format: cell-based; details: Homo sapiens, 10 μM single dose, Leukemia, read-out: Cell Growth inhibition Percent
Method: as §1, §2, §3, §4

[20] = test system: NCI-H226; assay: NCI-60 single-dose antiproliferative assay (SRB); format: cell-based; details: Homo sapiens; 10 μM single dose; NCI-H226, Non-small cell lung cancer; read-out: Cell Growth inhibition Percent
Method: as §1, §2, §3, §4

[21] = test system: HCT-116; assay: NCI-60 single-dose antiproliferative assay (SRB); format: cell-based; details: Homo sapiens; 10 μM single dose; HCT-116, Colon cancer; read-out: Cell Growth inhibition Percent
Method: as §1, §2, §3, §4

[22] = test system: SN12C; assay: NCI-60 single-dose antiproliferative assay (SRB); format: cell-based; details: Homo sapiens, 10 μM single dose, Renal cancer, read-out: Cell Growth inhibition Percent
Method: as §1, §2, §3, §4

[23] = test system: T-47D; assay: NCI-60 single-dose antiproliferative assay (SRB); format: cell-based; details: Homo sapiens, T47D, 10 μM single dose, Breast cancer, read-out: Cell Growth inhibition Percent
Method: as §1, §2, §3, §4

[24] = test system: EKVX; assay: NCI-60 single-dose antiproliferative assay (SRB); format: cell-based; details: Homo sapiens, 10 μM single dose, Non-small cell lung cancer, read-out: Cell Growth inhibition Percent
Method: as §1, §2, §3, §4

[25] = test system: NCI-H23; assay: NCI-60 single-dose antiproliferative assay (SRB); format: cell-based; details: Homo sapiens; 10 μM single dose; NCI-H23, Non-small cell lung cancer; read-out: Cell Growth inhibition Percent
Method: as §1, §2, §3, §4

[26] = Fig. 2; read-out: cytotoxicity average IC50; cited from earlier work
[27] = test system: FGFRI; details: FGFR-1, inhibitor co-crystallized in PDB ID: 4V01; ref 5 (supplement); read-out: IC50; cited from earlier work

Sequence of hCA I (P00915 whole entry): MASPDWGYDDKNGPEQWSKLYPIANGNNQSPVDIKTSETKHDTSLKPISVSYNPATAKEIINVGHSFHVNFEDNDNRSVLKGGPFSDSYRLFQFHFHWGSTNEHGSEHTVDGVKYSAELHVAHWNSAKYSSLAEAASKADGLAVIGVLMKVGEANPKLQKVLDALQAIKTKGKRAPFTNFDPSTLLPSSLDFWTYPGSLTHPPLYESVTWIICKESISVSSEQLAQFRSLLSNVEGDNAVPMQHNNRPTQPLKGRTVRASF
Sequence of hCA XII (O43570 25-354): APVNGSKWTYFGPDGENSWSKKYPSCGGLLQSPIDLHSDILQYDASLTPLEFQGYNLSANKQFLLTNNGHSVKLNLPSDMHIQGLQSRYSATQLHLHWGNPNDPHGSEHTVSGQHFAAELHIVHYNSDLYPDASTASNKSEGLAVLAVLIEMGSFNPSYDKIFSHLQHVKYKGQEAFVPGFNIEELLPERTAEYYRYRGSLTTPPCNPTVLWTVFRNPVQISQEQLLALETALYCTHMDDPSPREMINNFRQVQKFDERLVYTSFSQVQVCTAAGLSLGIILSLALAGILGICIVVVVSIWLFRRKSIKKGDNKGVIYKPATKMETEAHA

SMILES	Ki [1] [µM]	Ki [2] [µM]	Ki [3] [µM]	melting point [°C]	Ki [4] [µM]	Selectivity ratio I/IX [2]	Selectivity ratio II/IX [2]	Selectivity ratio I/XII [4]	Selectivity ratio II/XII [4]	further results
O=C1Nc2ccccc2C1=CNc1ccc(S(=O)(=O)Nc2ncccn2)cc1 [Compound 4b, 4-{[(2-Oxoindolin-3-ylidene)methyl]amino}-N-(pyrimidin-2-yl)benzenesulfonamide]	> 10	> 10	> 10	238 to 240	> 10	–	–	–	–	–
O=C1Nc2ccccc2C1=CNc1ccc(C(=O)Nc2nccs2)cc1 [Compound 9c, 4-{[(2-Oxoindolin-3-ylidene)methyl]amino}-N-(thiazol-2-yl)benzamide]	> 10	> 10	> 10	> 300	> 10	–	–	–	–	–
O=C1Nc2ccccc2C1=CNc1ccc(CNc2nccs2)cc1 [Compound 11c, 3-{[(4-((Thiazol-2-ylamino)methyl)phenyl)amino]methylene}indolin-2-one]	> 10	> 10	> 10	150 to 153	> 10	–	–	–	–	–
O=C(Nc1ccc(NC=C2C(=O)Nc3ccccc32)cc1)Nc1ccc(S(=O)(=O)Nc2ncccn2)cc1 [Compound 15b, 4-{3-[4-({[2-Oxoindolin-3-ylidene]methyl}amino)phenyl]ureido}-N-(pyrimidin-2-yl)benzenesulfonamide]	> 10	> 10	> 10	> 300	> 10	–	–	–	–	inhibition at 10 µM [5]: 18.3%; inhibition at 10 µM [6]: 4.97%; inhibition at 10 µM [14]: 49.1%; inhibition at 10 µM [7]: 1.01%; inhibition at 10 µM [8]: 5.79%; inhibition at 10 µM [15]: 0.02%; inhibition at 10 µM [16]: 2.59%; inhibition at 10 µM [17]: 5.91%; inhibition at 10 µM [18]: 2.05%; inhibition at 10 µM [9]: 1.02%; inhibition at 10 µM [11]: 5.21%; inhibition at 10 µM [19]: 3.55%; inhibition at 10 µM [20]: 3.3%; inhibition at 10 µM [21]: 7.3%; inhibition at 10 µM [22]: 1.23%; inhibition at 10 µM [12]: 15%; inhibition at 10 µM [23]: 7.81%; inhibition at 10 µM [24]: 1.92%; inhibition at 10 µM [25]: 72.8%
O=C1Nc2ccc(Cl)cc2/C1=N/Nc1nc(-c2ccccc2)cs1 [XIV]	–	–	–	–	–	–	–	–	–	IC50 [26]: 4.66 µM
Cc1ccc(C(=O)Nc2ccc(CN3CCN(C)CC3)c(C(F)(F)F)c2)cc1C#Cc1cnc2cccnn12 [ponatinib]	–	–	–	–	–	–	–	–	–	IC50 [27]: 0.0007 µM

Now from value to compound, other results behind:

Ki [1] [µM]	Ki [2] [µM]	Ki [3] [µM]	melting point [°C]	Ki [4] [µM]	Selectivity ratio I/IX [2]	Selectivity ratio II/IX [2]	Selectivity ratio I/XII [4]	Selectivity ratio II/XII [4]	SMILES	further results
8.95	> 10	> 10	195 to 199	> 10	–	–	–	–	O=C1Nc2ccccc2C1=CNC1=NS(=O)(=O)c2ccccc21 [Compound 4a, 3-{[(1,1-Dioxidobenzo[d]isothiazol-3-yl)amino]methylene}indolin-2-one]	–
5.58	0.941	6.24	165 to 170	0.133	6.63	5.93	46.89	41.97	NS(=O)(=O)OC=C1C(=O)Nc2ccccc21 [Compound 7, (2-Oxoindolin-3-ylidene)methyl sulfamate]	–
0.313	0.0688	0.332	–	0.0594	4.83	4.55	5.59	5.27	NS(=O)(=O)c1ccc(NC(=O)c2ccc(NC=C3C(=O)Nc4ccccc43)cc2)cc1 [Compound 9a, 4-{[(2-Oxoindolin-3-ylidene)methyl]amino}-N-(4-sulfamoylphenyl)benzamide]	inhibition at 10 µM [5]: 18%; inhibition at 10 µM [6]: 5.55%; inhibition at 10 µM [7]: 2.73%; inhibition at 10 µM [8]: 6.83%; inhibition at 10 µM [9]: 4.88%; inhibition at 10 µM [10]: 0.63%; inhibition at 10 µM [11]: 8.65%; inhibition at 10 µM [12]: 6.01%; inhibition at 10 µM [13]: 1.9%
0.307	0.0913	0.483	275 to 278	0.183	5.29	3.36	2.64	1.68	NS(=O)(=O)c1ccc(NC=CC(=O)c2ccc(NC=C3C(=O)Nc4ccccc43)cc2)cc1 [Compound 13a, 4-{[-3-Oxo-3-(4-{[(-2-oxoindolin-3-ylidene)methyl]amino}phenyl)prop-1-en-1-yl]amino}benzenesulfonamide]	–
0.762	0.863	0.845	–	0.175	0.98	0.88	4.83	4.36	NS(=O)(=O)c1ccc(NC(=O)Nc2ccc(NC=C3C(=O)Nc4ccccc43)cc2)cc1 [Compound 15a, 4-{3-[4-({[2-Oxoindolin-3-ylidene]methyl}amino)phenyl]ureido}benzenesulfonamide]	–
